Results as given in publication PMC7988117, “OMN6 a novel bioengineered peptide for the treatment of multidrug resistant Gram negative bacteria” (Scientific Reports, 2021).
Bridge positions count the residues as written; N and C are the ends. Peptide text beside a SMILES is read from it.

Tests used:
[1] = biological target: T1, Proteinase-K (Parengyodontium album, UniProt P06873); test: Peptide stability to Proteinase-K (SDS-PAGE); assay type: in vitro ADME; settings: 10 µg peptide with 5 or 20 ng Proteinase-K (0.16 or 0.66 µg/mL), 2 h, 37 °C; 15% acrylamide SDS-PAGE, Coomassie stain
T1 construct: purchased Sigma-Aldrich
T1 sequence (P06873 106-384): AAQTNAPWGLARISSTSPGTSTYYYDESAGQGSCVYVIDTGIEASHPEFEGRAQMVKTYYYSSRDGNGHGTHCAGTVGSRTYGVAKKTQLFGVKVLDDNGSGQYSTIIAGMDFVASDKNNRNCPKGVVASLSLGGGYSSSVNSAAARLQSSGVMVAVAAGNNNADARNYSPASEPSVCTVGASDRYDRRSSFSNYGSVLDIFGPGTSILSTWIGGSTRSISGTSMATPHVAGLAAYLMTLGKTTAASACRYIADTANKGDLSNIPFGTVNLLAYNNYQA
Protocol: 10 µg of synthetic cecropin A (Genscript, Piscataway, NJ, USA), OMN6, or bovine serum albumin (BSA; Sigma-Aldrich, St. Louis, MO, USA) were incubated with 5 or 20 ng Proteinase-K (Sigma-Aldrich; final treatment concentration of 0.16 or 0.66 µg/mL respectively) for 2 h at 37 °C, and separated on a 15% acrylamide gel (Bio-Rad, Hercules, CA, USA) by SDS-PAGE. The gel was then stained with Coomassie dye and excess color was removed over-night.

[2] = test system: HEK293T cells; assay type: cell-based
Protocol: HEK-293T17 cells (ATCC CRL-1573) were purchased from ATCC and cultured to 80% confluency according to the ATCC culture method, using high-glucose and L-Glutamine Dulbecco's Modified Eagle Medium (DMEM) medium (ATCC catalog number 30-2002) supplemented with 10% fetal bovine serum and 1% Penicillin–Streptomycin solution (all from Biological Industries). For the experiment purposes, 30,000 cells were transferred to a 96-well plate (experiment plate) in a final volume of 100 µL of medium. The experiment plate was incubated at 5% CO2 and 37 °C for approximately 18 h. After 18 h, medium was discarded, and cells were co-incubated with OMN6, Melittin (Sigma-Aldrich) or dimethyl sulfoxide (DMSO; MP Biomedical LLC, Solon, OH, USA) that were prepared in new medium at desired concentrations. The experiment plate was incubated at 5% CO2 and 37 °C for 24 h. Then, glutaraldehyde at a final concentration of 0.5% was added in all wells for 10 min for cell fixation. After washing the plate 3 times with DDW, the experiment plate was dried overnight. Then, cells were washed with 0.1 M Borate buffer (pH = 8.5) for 1 min. 100 µL Methylene Blue diluted in the same Borate buffer was added to all wells for 1 h. Wells were washed with DDW and plate was dried overnight. Color extraction was executed by adding 0.1 M HCl. After an incubation at 37 °C for 1 h, cell survival was determined via absorbance at 620 nm using a microplate reader.

[3] = test system: mouse red blood cells; test: Hemolysis assay; assay type: cell-based; settings: 10% mouse erythrocytes, 6.25–200 µM (27–868 µg/mL), 1 h, 37 °C, absorbance 400 nm
Protocol: Red Blood Cells (RBCs) suspension was prepared from whole blood extracted from the heart of Hsd:ICR (CD-1) mice (Envigo, Huntingdon, Cambridgeshire, UK). The study was carried out in accordance with relevant guidelines and regulations, and was approved by the Hebrew University Ethics Committee for the Care and Use of Laboratory Animals under approval number NS-15-14575-3. Briefly, blood was collected in a 24 U/mL heparin tube to prevent coagulation. Then cells were washed with Phosphate Buffered Saline (PBS; Biological Industries) and centrifuged at 200g for 10 min at 20 °C. This operation was repeated three times, then remaining RBCs were resuspended in saline or PBS to form a 10% RBC solution. Increasing concentrations of OMN6 or 1% Tween were added to RBCs. After an incubation of 1 h at 37 °C with shaking at 100 rpm, experiment tubes were centrifuged for 10 min at 200g at room temperature. 100 µL supernatant was extracted from each tube and tested according to the Hemoglobin Assay Kit (Sigma-Aldrich). Hemoglobin levels were determined via absorbance at 400 nm.

[4] = test system: Gram-positive strains (S. aureus, E. faecium, E. faecalis, B. cereus); test: MIC, broth microdilution (CLSI), summary over strains; assay type: cell-based; settings: E. faecalis and B. cereus, summary of Table 1
Description: (Italy), an Evotec Company.

[5] = test system: E. coli GFPuv; assay type: cell-based, Escherichia coli
Protocol: E. coli GFPuv bacteria (contribution from Dr. Tsafi Danieli, head of the Protein Expression Facility at the Hebrew University of Jerusalem, Israel) were grown in LB broth (BD) and induced to express the Green Fluorescent Protein (GFP) in auto-induction medium, as previously described by F.W. Studier[31]. Briefly, bacteria were cultured for 3 h at 37 °C while shaking at 200 rpm, in induction medium ZYP-5052 containing 1% N-Z amine AS, 0.5% yeast extract, 50 mM Na2HPO4, 50 mM KH2HPO4, 25 mM (NH4)2SO4, 2 mM MgSO4, 0.5% glycerol, 0.05% glucose and 0.2% lactose. For the bacterium visualization experiment, 2 × 10^6 colony-forming units (CFU) were treated by 16 µg/mL OMN6 or Double-Distilled Water (DDW) for 60 min. Bacteria were monitored with a confocal microscope at a wavelength of 488 nm. Then, bacteria were seeded on LB agar (BD) plates, incubated at 37 °C for 24 h, and CFU were counted. For the supernatant visualization and quantification experiment, 10^5 CFU were co-incubated with 50 µM OMN6 or DDW for 30 min, and bacteria were collected and centrifuged at 5000 rpm for 10 min. Experiment tubes were visualized under UV light. Then, supernatants were collected, and the absence of a significant quantity of bacteria in the supernatants was checked in a microplate reader by absorbance at 600 nm (OD < 0.05). Fluorescence levels were then quantified with excitation at 395 nm and emission at 509 nm.

Question: What does the source list for `CC[C@H](C)[C@@H]1NC(=O)CNC(=O)[C@H](CC(=O)O)NC(=O)[C@H](CCCNC(=N)N)NC(=O)[C@H]([C@@H](C)CC)NC(=O)[C@H](CC(N)=O)NC(=O)[C@H](CCC(N)=O)NC(=O)CNC(=O)[C@H](C(C)C)NC(=O)[C@H](CCCCN)NC(=O)[C@H](CCC(=O)O)NC(=O)[C@H]([C@@H](C)CC)NC(=O)[C@H](CCCCN)NC(=O)[C@H](CCCCN)NC(=O)[C@H](Cc2ccccc2)NC(=O)[C@H](CC(C)C)NC(=O)[C@H](CCCCN)NC(=O)[C@H](Cc2c[nH]c3ccccc23)NC(=O)[C@H](CCCCN)NC(=O)[C@@H](NC(=O)[C@@H](N)CCSC)CSSC[C@@H](C(N)=O)NC(=O)[C@H](CCCCN)NC(=O)[C@H](C)NC(=O)[C@H]([C@@H](C)CC)NC(=O)[C@H](CCC(N)=O)NC(=O)[C@H]([C@@H](C)O)NC(=O)[C@H](C)NC(=O)[C@H](CCC(N)=O)NC(=O)CNC(=O)[C@H](C(C)C)NC(=O)[C@H](C(C)C)NC(=O)[C@H](C)NC(=O)[C@H](C(C)C)NC(=O)[C@H](C)NC(=O)[C@@H]2CCCN2C(=O)CNC(=O)[C@H](C)NC(=O)[C@H](CCCCN)NC(=O)[C@H]([C@@H](C)CC)NC1=O` [OMN6] (H-MCKWKLFKKIEKVGQNIRDGIIKAGPAVAVVGQATQIAKC-NH2; disulfide 2-40; N-terminus assumed)?
Answer: Stability after exposure to Proteinase-K [1]: remained intact; Survival rate of HEK293T cells ([2]; 6.25–200 µM (27–868 µg/mL), 24 h, Methylene Blue, absorbance 620 nm, all concentrations): not affected; Therapeutic window (no toxicity to mammalian cells vs MIC value against Gram-negative bacterial species) ([2]; relative to MIC against Gram-negative species): larger than tenfold; Hemolysis expressed as free Hemoglobin [3]: no hemolysis; MIC on all tested Gram-positive strains [4]: > 256 µg/mL; Reduction in fluorescence arbitrary units (FU) of a bacterium, T = 0 h to T = 1 h (GFP leakage) ([5]; 16 µg/mL, 60 min, confocal microscope 488 nm, single bacterium): 12,000 FU; CFU on agar plates after treatment (bacterial death) ([5]; 2 × 10^6 CFU, 16 µg/mL, 60 min, then LB agar 37 °C 24 h, data not shown): No CFU; Level of fluorescence (FU) in supernatants vs DDW control ([5]; E. coli GFPuv 10^5 CFU, 50 µM, 30 min, centrifuged 5000 rpm, excitation 395 nm, emission 509 nm, p = 0.01): distinct increase
